According to US20260355180A1, “COMPOSITIONS AND METHODS FOR SPLICEOSOME-TARGETED THERAPIES” (Institute for Cancer Research d/b/a The Research Institute …, priority 2022, published 2026):
“Also recorded” adds a separate entry of the source.

Legend:
H82 SCLC cells [1] = assay: Cell survival after PlaB treatment, H82; type: cell-based
Description: (§1) FIG. 2A) SCLC cell lines (H446 and H82) and immortalized fibroblasts (FC1010 and HS68) cell survival curves after 72 hours of PlaB treatment. FIG. 2B) RIPK1 depletion rescues H82 and H446 cell survival after 18 hours of PlaB treatment. FIG. 2C) Western blot showing RIPK1 protein depletion. Mean±SEM, Welch's t test *p<0.05, **p<0.01.
(§2) Cancer deregulates splicing^31,32, and we hypothesized that hyper-proliferative SCLCs are dependent on splicing machineries for increased tumorigenicity^90.

H446 SCLC cells = assay: RIPK1 depletion rescue of PlaB cytotoxicity, H446; type: cell-based, human; conditions: 18 hours of PlaB, RIPK1 depleted H446
Description: as §1, §2

H82 SCLC cells [2] = assay: IFN response by rRT-qPCR, H82; type: cell-based; conditions: dose-dependent
Text: FIG. 3A-3D: SF3B1 inhibition induces a potent IFN response and increases expression of IFN-regulated proteins. […] Mean±SEM, two-tailed unpaired Student's t test *p<0.05, **p<0.01, ***p<0.001, ****p<0.0001.
We also observed that SF3B1 inhibition triggers robust anti-tumor response and upregulates IFN-β, IFN-γ, and IFN-responsive genes by real-time reverse-transcription quantitative polymerase chain reaction (rRT-qPCR) in H446 and H82 cells (FIGS. 3A and 3B). […] These observations indicate that spliceosome inhibition is useful as a targeted therapy for SCLCs.

H446 cells = assay: Immunofluorescence of A-RNA (J2) and Z-NA (Z22), H446; type: cell-based, human
Text: FIG. 4A-4C: SF3B1 perturbation increases dsRNA and Z-nucleic acid levels in treated cells. […] (FIG. 4B) Quantification of A-RNA and Z-Nucleic acids. (FIG. 4C) Western blot showing induction of cleaved-PARP, pH2AX, and ZBP1, and the reduction of RIPK1 protein levels. Plots of signal intensity are mean±SEM, two-tailed unpaired Student's t test **p<0.01, ****p<0.0001.
Our observations led us to explore what caused the elevated IFN response. We used an immunofluorescence (IF) technique to determine if A-RNA was increased after PlaB treatment.

MEF ΔZα cells = assay: A-RNA and Z-NA accumulation in MEF ΔZα; type: cell-based, mouse; conditions: SF3B1 inhibition
MEF Flag-ZBP1 cells [3] = assay: A-RNA and Z-NA accumulation in MEF Flag-ZBP1; type: cell-based, mouse; conditions: SF3B1 inhibition
MEF Flag-ZBP1 cells [4] = assay: pMLKL western blot / necroptosis, MEF Flag-ZBP1; type: cell-based, mouse; conditions: 2.5 nM PlaB, 18 hours, MEF Flag-ZBP1 (full-length ZBP1)
Description: (§3) FIG. 5A-5E: SF3B1 perturbation upregulates A-RNA and Z-nucleic acids in MEFs. (FIG. 5A) 5 nM of PlaB induces A-RNA and Z-Nucleic acids in ΔZBP1 MEF cells. (FIG. 5B) Quantification of A-RNA and Z-Nucleic acids. […] Plots of signal intensity are mean±SEM, two-tailed unpaired Student's t test *p<0.05, ***p<0.001, ****p<0.0001. 18 hours of PlaB treatment for IF, WB and rescue experiments. IF: 5 nM PlaB, WB and rescue experiments: 2.5 nM PlaB.
(§4) Since induction of Z-nAs can result in ZBP1-dependent necroptosis, we analyzed induction of necroptosis in necroptotic competent MEFs using spliceosome inhibition. […] We also determined that MEFs ΔZBP1, WT, and Flag-ZBP1 cells treated with PlaB began dying within 24hours after treatment. With MEF Flag-ZBP1 cells showing only 20% survival after 24 hours (FIG. 16).

MEF ΔZBP1 cells [5] = assay: pMLKL western blot / necroptosis, MEF ΔZBP1; type: cell-based, mouse; conditions: 2.5 nM PlaB, 18 hours
Description: as §3, §4

MEF RA cells = assay: pMLKL western blot / necroptosis, MEF RHIM-A mutant (RA); type: cell-based, mouse; conditions: 2.5 nM PlaB, 18 hours
Description: as §3, §4

MEF ΔZBP1 cells [6] = assay: Survival of PlaB treated MEF ΔZBP1; type: cell-based, mouse
Description: (§5) FIG. 16: Analysis of the effect of spliceosome inhibition on necroptosis in WT MEF cells. EV refers to cells treated with an empty vector.
as §4

MEF Flag-ZBP1 cells [7] = assay: Survival of PlaB treated MEF Flag-ZBP1; type: cell-based, mouse
Description: as §5, §4

RPPM631 cells = assay: A-RNA and Z-NA accumulation in RPPM631 cells; type: cell-based, mouse; conditions: 25 nM PLAB
Description: Additionally, SF3B1 inhibition was directly compared to SF3B1 knockout in the mouse SCLC cell line RPPM631. RPPM631 cells were treated with 25 nM PLAB and analyzed for their accumulation of Z-NA and A-RNA. […] (FIG. 12) Next, SF3B1-KO RPPM631 cells were generated and analyzed using immunc-fluorescence technique.

wild type RPPM631 cells = assay: Viability of wild type RPPM631 cells; type: cell-based, mouse; conditions: PlaB
Text: (§6) Next, we prepared ZBP1-KO RPPM631 cells to determine whether the necroptosis was ZBP-1 dependent.

ZBP1-KO RPPM631 cells = assay: Viability of ZBP1-KO RPPM631 cells; type: cell-based, mouse; conditions: PlaB
Text: as §6

H82 cells = assay: MAVS knock out rescue of PlaB-mediated cell death, H82; type: cell-based; conditions: MAVS KO H82; data not shown
Text: Currently, ZBP1 and ADAR1 are the only two known proteins harbor Zα and interact with Z-NAs^104-109.

pTBK1 protein = assay: Western blot of pTBK1; type: cell-based
Text: FIG. 7: Western Blot analysis showing pTBK1 protein depletion.
Based on the publications and our findings, TNF sensing can at least partially rescue spliceosome perturbation mediated cell death.

RPP631 cells in mice = assay: Combination therapy with PlaB and αPD-1 in mice, tumor size; type: in vivo; conditions: PlaB intra-tumorally and αPD-1 intra-peritoneally, days 14, 17, 20, 22; vs IgG or anti-PD1 only; 24 days
Description: FIG. 17: Analysis of combination therapy in mouse model using PlaB and αPD-1.
This combination therapy was tested in RPP631 cells in mice. At day 0, the mice were injected with 8×10^6 RPP631 cells. At days 14, 17, 20, and 22, the mice were injected with PlaB or a vehicle intra-tumorally and IgG or αPD-1 intra-peritoneally. The tumors were then measured over 24 days. (FIG. 17).

Question: `CCC(O)C(C)C1OC1CC(C)C=CC=C(C)C1OC(=O)CC(O)CCC(C)(O)C(OC(C)=O)C=CC1C` (stereo not drawn) [PlaB, Pladienolide B] was tested. Which cell survival (H82 SCLC cells [1]; 72 hours of PlaB, H82) did it give?
Answer: Its cell survival is “drastically reduces cell survival; also recorded: dramatically reduces SCLC cell survival”.

Question: And the “sensitivity to SF3B1 inhibition” value (H82 SCLC cells [1]; nanomolar concentration of PlaB)?
Answer: The value was “particularly sensitive”.

Question: And the “cell survival upon RIPK1 depletion” value (H446 SCLC cells)?
Answer: The value was “rescues”.

Question: And the IFN response (H82 SCLC cells [2])?
Answer: The IFN response was “induces potent IFN response”.

Question: And the A-RNA level (H446 cells; 6 hours, mouse J2 antibody, H446)?
Answer: Its A-RNA level is “robust induction”.

Question: What about the Z-NA level (H446 cells; 6 hours, rabbit Z22 antibody, H446) of the same molecule?
Answer: The Z-NA level was “significant increase”.

Question: What about the “accumulation of A-RNA” value (H446 cells; low dose, J2 antibody) of the same molecule?
Answer: Its value is “induces accumulation”.

Question: And the “accumulation of Z-Nucleic acids” value (H446 cells; low dose, Z22 antibody)?
Answer: The value was “induces accumulation”.

Question: And the “A-RNA and Z-NA accumulation” value (MEF ΔZα cells)?
Answer: Its value is “accumulation”.

Question: What about the “A-RNA and Z-NA accumulation” value (MEF Flag-ZBP1 cells [3]) of the same molecule?
Answer: The value was “accumulation”.

Question: And the “pMLKL (necroptosis)” value (MEF Flag-ZBP1 cells [4])?
Answer: Its value is “triggered pMLKL; also recorded: induction of pMLKL”.

Question: What about the “pMLKL (necroptosis)” value (MEF ΔZBP1 cells [5]) of the same molecule?
Answer: The value was “not triggered”.

Question: And the “pMLKL (necroptosis)” value (MEF RA cells; MEF RA)?
Answer: Its value is “not triggered”.

Question: And the PlaB-mediated necroptosis (MEF RA cells; MEF RHIM-A mutant)?
Answer: Its PlaB-mediated necroptosis is “avoid PlaB-mediated necroptosis”.

Question: And the “time after treatment at which cells began dying” value (MEF ΔZBP1 cells [6])?
Answer: Its value is no more than 24 h.

Question: And the “time after treatment at which cells began dying” value (MEF Flag-ZBP1 cells [7]; MEF Flag-ZBP1)?
Answer: The value was no more than 24 h.

Question: And the survival (MEF Flag-ZBP1 cells [7]; MEF Flag-ZBP1, after 24 hours)?
Answer: Its survival is 20%.

Question: And the A-RNA accumulation (RPPM631 cells)?
Answer: Its A-RNA accumulation is “increase”.

Question: And the Z-NA accumulation (RPPM631 cells)?
Answer: The Z-NA accumulation was “increase”.

Question: What about the viability (wild type RPPM631 cells) of the same molecule?
Answer: Its viability is “significant decrease in viability”.

Question: What about the viability (ZBP1-KO RPPM631 cells) of the same molecule?
Answer: Its viability is “only a minor decrease in viability”.

Question: And the “rescue of PlaB-mediated cell death by MAVS knock out” value (H82 cells)?
Answer: Its value is “only minimally rescue”.

Question: What about the pTBK1 protein (pTBK1 protein) of the same molecule?
Answer: The pTBK1 protein was “dramatic reduction”.

Question: And the tumor size (RPP631 cells in mice)?
Answer: The tumor size was “significantly reduced tumor size”.
